Results on five compounds are retold here after patent US5652234A, “3-(7-oxo-1-aza-4-oxabicyclo[3.2.0]hept-3-yl)alanine derivative as antitumor agent” (Taiho Pharmaceutical Co., Limited, priority 1994, dated 1997).

For one series, the system named is L1210 cells. In words: cells. It is filed as cell-based. The note with it: Mus musculus, L1210, 72 h, read-out: Cytotoxicity TD50 L-1210. The protocol: Vitro L1210 Cell Cytoxocity Assay
In vitro :L1210 cell cytotoxicity assay was done by the method of microculture tetrazolium assay (Alley et al., Cancer Research, 48, 589-601 (1988).
L1210 cells were cultivated in RPMI 1640 medium supplemented with 10% fetal calf serum and […] of 2-mercaptoethanol at 37° C. in humidified 5% CO2 atmosphere no prepare a cell stock. Cells were counted using neubauer hemocytometer and seed in 96 well plates at 100 μl of 0.5×10^4 cells per ml. The test compounds were diluted and 100 μl of the solution was added in triplicate wells to give the final concentration of 10, 5, 1, 0.5, 0.1, 0.05 and 0.01 μg/ml. Control wells were identical except :hat the test compound was absent. These were cultured for three days. Results were assayed using the microculture tetrazolium assay briefly. 50 μl of MTT formazoan working solution (1:5 v/v in culture medium) was added to each well and cultures were incubated at 37° C. for 4 hrs. Culture plates were centrifuged at low speed for 5 minutes. All but 10-20 μl of culture medium supernatant was removed by slow aspiration and […] and read at OD540 on a multiscan spectrophotometer. Inhibition value of cell growth was calculated based on optical density using the following equation; [formula] TD50 values were calculated from linear depression ines of the log-logit plot.

A further series has as its system KB cells. The series is described as follows: cells. The conditions noted are these: Homo sapiens, 72 h, read-out: Cytotoxicity TD50 KB. It is filed as cell-based. The protocol: In vitro KB cell cytoxocity assay was done by modification of the crystal violet assay (Grillis et al., Anal Biochem., 159, 109-113 (1986).
KB cells were cultivated in Eagles minimum essential medium supplemented with 10% calf serum and incubated at 37° C. in a humidified 5% CO2 atmosphere to prepare a cell stock. Cells were counted using a neubauer hemocytometer and seeded in 96 well plates at 100 μl of 3×10^4 cells/ml and cultured for one day. Test compounds were diluted and 100 .parallel.l of the solution was added in triplicate wells to give final concentration of 10, 5, 1, 0.5, 0.1, 0.05 and 0.01 μg/ml. Control wells were identical except that test compound was absent. These were cultured for three days. Then the cells were fixed with addition of 20 μl of 25% glutaraldehyde for 15 minutes, washed with water and dried. Then stained with 100 μl of 0.05% crystal violet for 15minutes, washed with water and dried. The wells are eluted with 100 μl of 0.05M NaH2 PO4 /ethanol (1:1 v/v) and read at OD540 on a multiscan spectrophotometer. Inhibition value of cell Growth was calculated based on optical density using the following equation; [formula] TD50 values were calculated from linear recression ines of the log-logit plot.

Another series concerns Sarcoma 180. In words: In Vivo Antitumor Activity Against Sarcoma 180. More on the design: species or system male ICR mice. The note with it: s.c. - i.p., days 1, 5 and 9, tumor weight on day 12. The protocol: The compounds of general formula (I) were tested in vivo against Sarcoma 180 xenografted tumor to mice as illustrated herein after.
Sarcoma 180, 5×10^6 cells were inoculated by S.C. to male ICR mice (6 weeks old) on day 0. Drugs were administered on days 1,5 and 9. Mice were killed and tumor weight was measured on day 12 after transplantation. The percentage inhibition of tumor growth was calculated from the mean tumor weight of the treated group compared with that of the control group. Number of mice used in each group was between 6 to 10.

For series [1] the following is noted: isolation to be done in the dark at low temperatures; cited from earlier work.
Another series concerns β-lactamase. The note with it: natural metabolites isolated from Streptomyces culture; cited from earlier work.

Turning to `O=C(N[C@@H](C[C@@H]1CN2C(=O)C[C@@H]2O1)C(=O)OC(c1ccccc1)c1ccccc1)OCc1ccccc1` (mixture of isomers) [10A, N-Benzyloxycarbonyl-3-[(3RS,5SR)-7-oxo-1-aza-4-oxabicyclo [3.2.0]hept-3-yl]-L-alanine diphenylmethyl ester], the figures for the IC50 in the series on L1210 cells and with KB cells were 10 µg/mL and 3.17 µg/mL, respectively.

`O=C(N[C@H](C[C@@H]1CN2C(=O)C[C@@H]2O1)C(=O)OC(c1ccccc1)c1ccccc1)OCc1ccccc1` (mixture of isomers) [10B, N-(benzyloxycarbonyl)-3-[(3RS,5SR)-7-oxo-1-aza-4-oxabicyclo[3.2.0]hept-3-yl]-D-alanine diphenylmethyl ester]: the IC50 was 7.5 µg/mL in the series on L1210 cells and 1.78 µg/mL in the series on KB cells.

In the case of `N[C@@H](C[C@@H]1CN2C(=O)C[C@@H]2O1)C(=O)O` (mixture of isomers) [compound 11, 3-[(3RS,5SR)-7-oxo-1-aza-4-oxabicyclo[3,2,0]hept-3-yl]-L-alanine], the IC50 in the series with L1210 cells was 0.1 µg/mL; in the series on KB cells, 0.023 µg/mL. Besides, the “% Inhibition in 12 days (tumor growth, tumor weight)” value in the series with Sarcoma 180 (1.56 mg/kg/day) is 71.4%; in the series on Sarcoma 180 (3.13 mg/kg/day), 79.5%.

For the compound `N[C@H](C[C@@H]1CN2C(=O)C[C@@H]2O1)C(=O)O` (mixture of isomers) [compound 12, 3-[(3RS,5SR)-7-oxo-1-aza-4-oxabicyclo[3.2.0]hept-3-yl]-D-alanine], the IC50 in the series with KB cells is 0.098 µg/mL.

On to `CC(C)C(N)C(=O)NC(C(=O)O)C(O)C1CN2C(=O)CC2O1` (centres unmarked) [G0069A], for which the chemical stability result in series [1] is given as “chemicalyl unstable”. Moreover, the β-lactamase inhibitory properties result with β-lactamase was “None of the above metabolites exhibited β-lactamase inhibitory properties”.
